In PubChem BioAssay AID504419 (The Scripps Research Institute Molecular Screening Center, 2011):
The source made the active and inactive calls. The rule behind the calls is not given here.

Legend:
NS3h 1b (con1) = assay: strain-dependent HCV NS3h unwinding inhibition – biochemical, real-time fluorescence, genotypes 2a and 1b, Set 2, selectivity assay for HCV NS3 helicase inhibitor project, late-stage follow-up (AID 504419); details: Recombinant NS3 helicase
NS3h 2a (JFH1) = assay: as above; details: Recombinant NS3 helicase

Row | IC50 (NS3h 1b (con1)) | IC50 (NS3h 2a (JFH1)) | SMILES
1 | > 100 µM (inactive) | > 100 µM (inactive) | Nc1c(C(=O)Nc2ccccc2F)sc2nc(-c3ccco3)ccc12
2 | > 100 µM (inactive) | > 100 µM (inactive) | O=C(NC(=S)Nc1ccc(-c2ccc(CO)o2)cc1)c1cccs1
3 | > 100 µM (inactive) | > 100 µM (inactive) | CC(=O)c1ccc(-c2cccc(-c3cc(=O)oc4ccc(C(C)(C)C)cc34)c2)cc1
4 | 8.41 µM | 5.7 µM | COc1ccc(C(=O)Nc2ccc(-c3nc4ccc(-c5nc6ccc(C)c(S(=O)(=O)O)c6s5)cc4s3)cc2)cc1
